We go through 28 molecules from patent US7102009B2, “Substituted amine derivatives and methods of use” (Amgen Inc., priority 2001, dated 2006).

pIC50: −log10 of the molar value. Bounds are passed on as bounds.

The test system of this experiment is Human Umbilical Vein Endothelial cells (VEGF-stimulated HUVEC proliferation). Briefly: HUVEC Proliferation Assay (VEGF-stimulated). It is filed as cell-based. The following applies: VEGF 50 ng/mL, 72 h incubation, CyQuant readout, read-out: inhibited VEGF-stimulated HUVEC proliferation at a level below (IC50). How it is done: Human Umbilical Vein Endothelial cells are purchased from Clonetics, Inc., as cryopreserved cells harvested from a pool of donors. These cells, at passage 1, are thawed and expanded in EBM-2 complete medium, until passage 2 or 3. The cells are trypsinized, washed in DMEM+10% FBS+antibiotics, and spun at 1000 rpm for 10 min. Prior to centrifugation of the cells, a small amount is collected for a cell count. After centrifugation, the medium is discarded, and the cells are resuspended in the appropriate volume of DMEM+10% FBS+antibiotics to achieve a concentration of 3×10^5 cells/mL. Another cell count is performed to confirm the cell concentration. The cells are diluted to 3×10^4 cells/mL in DMEM+10% FBS+antibiotics, and 100 μL of cells are added to a 96-well plate. The cells are incubated at 37° C. for 22 h.
Prior to the completion of the incubation period, compound dilutions are prepared. Five-point, five-fold serial dilutions are prepared in DMSO, at concentrations 400-fold greater than the final concentrations desired. 2.5 μL of each compound dilution are diluted further in a total of 1 mL DMEM+10% FBS+antibiotics (400× dilution). Medium containing 0.25% DMSO is also prepared for the 0 μM compound sample. At the 22-hour timepoint, the medium is removed from the cells, and 100 μL of each compound dilution is added. The cells are incubated at 37° C. for 2-3 h.
During the compound pre-incubation period, the growth factors are diluted to the appropriate concentrations. Solutions of DMEM+10% FBS+antibiotics, containing either VEGF or bFGF at the following concentrations: 50, 10, 2, 0.4, 0.08, and 0 ng/mL are prepared. For the compound-treated cells, solutions of VEGF at 550 ng/mL or bFGF at 220 ng/mL for 50 ng/mL or 20 ng/mL final concentrations, respectively, are prepared since 10 μL of each will be added to the cells (110 μL final volume). At the appropriate time after adding the compounds, the growth factors are added. VEGF is added to one set of plates, while bFGF is added to another set of plates. For the growth factor control curves, the media on wells B4-G6 of plates 1 and 2 are replaced with media containing VEGF or bFGF at the varying concentrations (50-0 ng/mL). The cells are incubated at 37° C. for an additional 72 h.
At the completion of the 72 h incubation period, the medium is removed, and the cells are washed twice with PBS. After the second wash with PBS, the plates are tapped gently to remove excess PBS, and the cells are placed at −70° C. for at least 30 min. The cells are thawed and analyzed using the CyQuant fluorescent dye (Molecular Probes C-7026), following the manufacturer's recommendations. The plates are read on a Victor/Wallac 1420 workstation at 485 nm/530 nm (excitation/emission). Raw data are collected and analyzed using a 4-parameter fit equation in XLFit. IC50 values are then determined.

On to `O=C(Nc1cccc(C(F)(F)F)c1)c1ccc(F)nc1Nc1ccc2cn[nH]c2c1` [Example 68, [6-Fluoro-2-(1H-indazol-6-ylamino)(3-pyridyl)]-N-[3-(trifluoromethyl)phenyl]carboxamide], for which the pIC50 was more than 7.30. Turning to `CC(C)N1CCC[C@H]1COc1cc(NC(=O)c2cccnc2Nc2ccc3cn[nH]c3c2)cc(C(F)(F)F)c1` [Example 583, 2-(1H-Indazol-6-ylamino)-N-(3-((((2S)-1-(1-methylethyl)-2-pyrrolidinyl)methyl)oxy)-5-(trifluoromethyl)phenyl)-3-pyridinecarboxamide], the pIC50 is more than 7.30.

`O=C(Nc1ccc(C(OCCN2CCCCC2)(C(F)(F)F)C(F)(F)F)cc1)c1cccnc1Nc1ccc2cn[nH]c2c1` [Example 65, [2-(1H-Indazol-6-ylamino)(3-pyridyl)]-N-{4-[2,2,2-trifluoro-1-(2-piperidylethoxy)-1-(trifluoromethyl)ethyl]phenyl}carboxamide]: the pIC50 was more than 7.30. Turning to `CC(C)N1CCN(c2cc(NC(=O)c3cccnc3Nc3ccc4cn[nH]c4c3)ccc2C(C)(C)C)CC1` [Example 103, N-[4-tert-Butyl-3-(4-isopropyl-piperazin-1-yl)-phenyl]-2-(1H-indazol-6-ylamino)-nicotinamide], the pIC50 is more than 7.30. On to `O=C(Nc1ccc(C(F)(F)C(F)(F)F)cc1)c1cccnc1Nc1ccc2cn[nH]c2c1` [Example 123, 2-(1H-Indazol-6-ylamino)-N-(4-pentafluoroethyl-phenyl)-nicotinamide], for which the pIC50 is more than 7.30. Then `CC(=O)N1Cc2cc(NC(=O)c3cccnc3Nc3ccc4cn[nH]c4c3)ccc2C(C)(C)C1` [Example 94, N-(2-Acetyl-4,4-dimethyl-1,2,3,4-tetrahydro-isoquinolin-7-yl)-2-(1H-indazol-6-ylamino)-nicotinamide], with more than 7.30; and `O=C(Nc1ccc(Cl)cc1)c1cccnc1Nc1ccc2cn[nH]c2c1` [Example 3, N-(4-Chlorophenyl)[2-(1H-indazol-6-ylamino)(3-pyridyl)]carboxamide], with more than 7.30. With `O=C(Nc1ccc(C(F)(F)C(F)(F)F)c(CN2CCOCC2)c1)c1cccnc1Nc1ccc2cn[nH]c2c1` [Example 110, 2-(1H-Indazol-6-ylamino)-N-(3-morpholin-4-ylmethyl-4-pentafluoroethyl-phenyl)-nicotinamide] the figure was more than 7.30. With `CC(C)(CCN1CCOCC1)c1ccc(NC(=O)c2cccnc2Nc2ccc3cn[nH]c3c2)cc1` [Example 63, N-[4-(1,1-Dimethyl-3-morpholin-4-ylpropyl)phenyl][2-(1H-indazol-6-ylamino)(3-pyridyl)]carboxamide] the figure was more than 7.30; with `CN(C)CC(=O)N1CC(C)(C)c2ccc(NC(=O)c3cccnc3Nc3ccc4cn[nH]c4c3)cc21` [Example 107, N-[1-(2-Dimethylamino-acetyl)-3,3-dimethyl-2,3-dihydro-1H-indol-6-yl]-2-(1H-indazol-6-ylamino)-nicotinamide], more than 7.30. With `CN1CCC(COc2cc(NC(=O)c3cccnc3Nc3ccc4cn[nH]c4c3)ccc2C(F)(F)C(F)(F)F)CC1` [Example 78, 2-(1H-Indazol-6-ylamino)-N-[3-(1-methyl-piperidin-4-ylmethoxy)-4-pentafluoroethyl-phenyl]-nicotinamide], the pIC50 was more than 7.30. Then `CC1(C)CNCc2cc(NC(=O)c3cccnc3Nc3ccc4cn[nH]c4c3)ccc21` [Example 126, N-(4,4-Dimethyl-1,2,3,4-tetrahydro-isoquinolin-7-yl)-2-(1H-indazol-6-ylamino)-nicotinamide], with more than 7.30; and `COCCOCCOC(c1ccc(NC(=O)c2cccnc2Nc2ccc3cn[nH]c3c2)cc1)(C(F)(F)F)C(F)(F)F` [Example 64], with more than 7.30. With `CN1CCC(c2cc(NC(=O)c3cccnc3Nc3ccc4cn[nH]c4c3)cc(C(F)(F)F)c2)CC1` [Example 90, 2-(1H-Indazol-6-ylamino)-N-[3-(1-methyl-piperidin-4-yl)-5-trifluoromethyl-phenyl]-nicotinamide] the figure was more than 7.30. In the case of `CC1(C)CN(C(=O)[C@@H]2CCCN2)c2cc(NC(=O)c3cccnc3Nc3ccc4cn[nH]c4c3)ccc21` [Example 631, N-[3,3-Dimethyl-1-(pyrrolidine-2-carbonyl)-2,3-dihydro-1H-indol-6-yl]-2-(1H-indazol-6-ylamino)-nicotinamide], the pIC50 was more than 7.30. Then `CC(C)(C)c1ccc(NC(=O)c2cccnc2Nc2ccc3cn[nH]c3c2)cc1NC(=O)CN1CCOCC1` [Example 588, N-(4-(1,1-Dimethyl)-3-((4-morpholinylacetyl)amino)phenyl)-2-(1H-indazol-6-ylamino)-3-pyridinecarboxamide], with more than 7.30. Then `CC1(C)COc2cc(NC(=O)c3cccnc3Nc3ccc4cn[nH]c4c3)ccc21` [Example 106, N-(3,3-Dimethyl-2,3-dihydro-benzofuran-6-yl)-2-(1H-indazol-6-ylamino)-nicotinamide], with more than 7.30; and `O=C(Nc1ccc(C(O)(C(F)(F)F)C(F)(F)F)cc1)c1cccnc1Nc1ccc2cn[nH]c2c1` [Example 24], with more than 7.30; and `CC1(C)CNCc2cc(NC(=O)c3cccnc3Nc3ccc4[nH]c(=O)[nH]c4c3)ccc21` [Example 594, N-(4,4-Dimethyl-1,2,3,4-tetrahydro-isoquinolin-7-yl)-2-(2-oxo-2,3-dihydro-1H-benzoimidazol-5-ylamino)-nicotinamide], with more than 7.30.

Turning to `CC(C)(C)c1ccc(NC(=O)c2cccnc2Nc2ccc3cn[nH]c3c2)cc1` [Example 8, N-[4-(tert-Butyl)phenyl][2-(1H-indazol-6-ylamino)(3-pyridyl)]carboxamide], the pIC50 was more than 7.30. With `CC(C)c1ccc(NC(=O)c2cccnc2Nc2ccc3cn[nH]c3c2)cc1` [Example 5, 2-(1H-Indazol-6-ylamino)-N-(4-isopropyl-phenyl)nicotinamide] the figure was more than 7.30; with `CN1CCC(C(C)(C)c2ccc(NC(=O)c3cccnc3Nc3cccc4c3CNC4=O)cc2)CC1` [Example 603, N-{4-[1-Methyl-1-(1-methyl-piperidin-4-yl)-ethyl]-phenyl}-2-(1-oxo-2,3-dihydro-1H-isoindol-4-ylamino)-nicotinamide], more than 7.30; with `O=C(Nc1cc(OCC2CCNCC2)cc(C(F)(F)F)c1)c1cccnc1Nc1ccc2cn[nH]c2c1` [Example 75, 2-(1H-Indazol-6-ylamino)-N-[3-(piperidin-4-ylmethoxy)-5-trifluoromethyl-phenyl]-nicotinamide], more than 7.30. On to `CC(C)c1ccc(NC(=O)c2ccc(F)nc2Nc2ccc3cn[nH]c3c2)cc1` [Example 67, [6-Fluoro-2-(1H-indazol-6-ylamino)(3-pyridyl)]-N-[4-(methylethyl)phenyl]carboxamide], for which the pIC50 is more than 7.30. For `O=C1NCCc2ccc(NC(=O)c3cccnc3Nc3ccc4cn[nH]c4c3)cc21` [Example 27, 2-(1H-Indazol-6-ylamino)-N-(1-oxo-1,2,3,4-tetrahydro-isoguinolin-7-yl)-nicotinamide], the pIC50 was more than 7.30. With `O=C(Nc1cccc(C(O)(C(F)(F)F)C(F)(F)F)c1)c1cccnc1Nc1cccc2c1CNC2=O` [Example 609, 2-(1-Oxo-2,3-dihydro-1H-isoindol-4-ylamino)-N-[3-(2,2,2-trifluoro-1-hydroxy-1-trifluoromethyl-ethyl)-phenyl]-nicotinamide] the figure was more than 7.30; with `O=C(Nc1ccc(C(O)(C(F)(F)F)C(F)(F)F)cc1)c1cccnc1Nc1cccc2c1CNC2=O` [Example 608, 2-(1-Oxo-2,3-dihydro-1H-isoindol-4-ylamino)-N-[4-(2,2,2-trifluoro-1-hydroxy-1-trifluoromethyl-ethyl)-phenyl]-nicotinamide], more than 7.30. For the molecule `CN1CCC(CN2CC(C)(C)c3ccc(NC(=O)c4cccnc4Nc4ccc5cn[nH]c5c4)cc32)CC1` [Example 42, N-[3,3-Dimethyl-1-(1-methyl-piperidin-4-ylmethyl)-2,3-dihydro-1H-indol-6-yl]-2-(1H-indazol-6-ylamino)-nicotinamide], the pIC50 is more than 7.30.
